For 13 compounds, pest or weed control results are on record in patent publication US20230077362A1 (CORTEVA AGRISCIENCE LLC, priority 2019, published 2023).

Common to all, as to format: in vivo
The subject of test [1] is Beet Armyworm (Spodoptera exigua) ("BAW"), second instar larvae. Briefly: Bioassay on beet armyworm (BAW), 128-well diet tray assay. As to conditions: Spodoptera exigua, read-out: BAW (Biological Results, rating). Summed up:
(§1)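 Mortality (%) is scored well by well after five to seven days at 25° C. on a 14:10 light:dark regime. The value given is the mean of eight wells.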

Test [2] has as its system Green Peach Aphid ("GPA") (Myzus persicae), wingless adult and nymph stages. In words: Bioassay on green peach aphid (GPA), foliar spray on infested cabbage seedlings. As to conditions: Myzus persicae, foliar, 72 h, read-out: GPA (Biological Results, rating). Put shortly:
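Cabbage seedlings with 2-3 true leaves, infested one day earlier with 20-50 wingless adult and nymph GPA, sprayed to runoff on both leaf sides; solvent check held 20% acetone/methanol (1:1). Live aphids counted after three days at about 25° C; corrected % control = 100*(X−Y)/X versus solvent check.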

Test [3] relates to Cabbage Looper (Trichoplusia ni) ("CL"), second instar larvae. In words: Bioassay on cabbage looper (CL), 128-well diet tray assay. To be noted: Trichoplusia ni, read-out: CL (Biological Results, rating). Put shortly:
as §1

As to `Cc1ccc(COCC(F)(F)F)c(N2C(=O)CS/C2=N\C(=O)Nc2ccc(-c3ncn(-c4ccc(C(F)(F)F)cc4)n3)cc2F)c1` [Compound J168, (Z)-1-(2-Fluoro-4-(1-(4-(trifluoromethyl)phenyl)-1H-1,2,4-triazol-3-yl)phenyl)-3-(3-(5-methyl-2-((2,2,2-trifluoroethoxy)methyl)phenyl)-4-oxothiazolidin-2-ylidene)urea], the pest or weed control at 50 µg/cm2 in test [1] and in test [3] was 50 to 100% each time. For the same compound, the pest or weed control at 200 µg/mL in test [2] is 0 to 80%.
Turning to `CCCc1ccc(OCC)cc1N1C(=O)CS/C1=N\C(=O)Nc1ccc(-c2ncn(-c3ccc(OC(F)(F)F)cc3)n2)cc1F` [Compound J169, (Z)-1-(3-(5-Ethoxy-2-propylphenyl)-4-oxothiazolidin-2-ylidene)-3-(2-fluoro-4-(1-(4-(trifluoromethoxy)phenyl)-1H-1,2,4-triazol-3-yl)phenyl)urea], the pest or weed control at 50 µg/cm2 in test [1] and in test [3] was 50 to 100% in each case. Also, the pest or weed control at 200 µg/mL in test [2] is 0 to 80%.
With `COCOc1cc(-c2ncn(-c3ccc(OC(F)(F)F)cc3)n2)ccc1NC(=O)/N=C1\SCC(=O)N1c1cc(N(C)C)ccc1C(C)C` [Compound J172, (Z)-1-(3-(5-(Dimethylamino)-2-isopropylphenyl)-4-oxothiazolidin-2-ylidene)-3-(2-(methoxymethoxy)-4-(1-(4-(trifluoromethoxy)phenyl)-1H-1,2,4-triazol-3-yl)phenyl)urea], the pest or weed control at 50 µg/cm2 in test [1] and in test [3] was 50 to 100% in each case. Also, in test [2], the pest or weed control at 200 µg/mL lay in the range of 0 to 80%.
With `CCOCc1ccc(C)cc1N1C(=O)CS/C1=N\C(=O)Nc1ccc(-c2ncn(-c3ccc(OC(F)(F)F)cc3)n2)cc1F` [Compound J180, (Z)-1-(3-(2-(Ethoxymethyl)-5-methylphenyl)-4-oxothiazolidin-2-ylidene)-3-(2-fluoro-4-(1-(4-(trifluoromethoxy)phenyl)-1H-1,2,4-triazol-3-yl)phenyl)urea], the pest or weed control at 50 µg/cm2 in test [1] and in test [3] was 50 to 100% throughout. Besides, in test [2], the pest or weed control at 200 µg/mL lay within 0 to 80%.
In the case of `COC(c1ccc(C)cc1N1C(=O)CS/C1=N\C(=O)Nc1ccc(-c2ncn(-c3ccc(OC(F)(F)F)cc3)n2)cc1F)C(F)(F)F` (stereo not drawn) [Compound J181, (Z)-1-(2-Fluoro-4-(1-(4-(trifluoromethoxy)phenyl)-1H-1,2,4-triazol-3-yl)phenyl)-3-(3-(5-methyl-2-(2,2,2-trifluoro-1-methoxyethyl)phenyl)-4-oxothiazolidin-2-ylidene)urea], the pest or weed control at 50 µg/cm2 in test [1] and in test [3] was 50 to 100% throughout. The pest or weed control at 200 µg/mL in test [2] lay within 0 to 80%.
Regarding `CC(C)c1cc(F)c(N(C)C)cc1N1C(=O)CS/C1=N\C(=O)Nc1ccc(-c2ncn(-c3ccc(C(F)(F)F)cc3)n2)cc1F` [Compound J183, (Z)-1-(3-(5-(Dimethylamino)-4-fluoro-2-isopropylphenyl)-4-oxothiazolidin-2-ylidene)-3-(2-fluoro-4-(1-(4-(trifluoromethyl)phenyl)-1H-1,2,4-triazol-3-yl)phenyl)urea], the pest or weed control at 50 µg/cm2 in test [1] and in test [3] was 50 to 100% in each case. Besides, the pest or weed control at 200 µg/mL in test [2] lay within 0 to 80%.
Take `CCN(C(C)=O)c1ccc(C(C)C)c(N2C(=O)CS/C2=N\C(=O)Nc2ccc(-c3ncn(-c4ccc(OC(F)(F)F)cc4)n3)cc2F)c1` [Compound J189, (Z)-N-Ethyl-N-(3-(2-(((2-fluoro-4-(1-(4-(trifluoromethoxy)phenyl)-1H-1,2,4-triazol-3-yl)phenyl)carbamoyl)imino)-4-oxothiazolidin-3-yl)-4-isopropylphenyl)acetamide]: the pest or weed control at 50 µg/cm2 in test [1] and in test [3] was 50 to 100% in each case. Besides, the pest or weed control at 200 µg/mL in test [2] was in the range of 0 to 80%.
As to `CCOc1ccc(N(C)C)cc1N1C(=O)CS/C1=N\C(=O)Nc1ccc(-c2ncn(-c3ccc(OC(F)(F)F)cc3)n2)cc1F` [Compound J192, (Z)-1-(3-(5-(Dimethylamino)-2-ethoxyphenyl)-4-oxothiazolidin-2-ylidene)-3-(2-fluoro-4-(1-(4-(trifluoromethoxy)phenyl)-1H-1,2,4-triazol-3-yl)phenyl)urea], the pest or weed control at 50 µg/cm2 in test [1] and in test [3] was 50 to 100% in each case. In test [2], the pest or weed control at 200 µg/mL is 0 to 80%.
As for `CN(C)c1ccc(OCC(F)(F)F)c(N2C(=O)CS/C2=N\C(=O)Nc2ccc(-c3ncn(-c4ccc(OC(F)(F)F)cc4)n3)cc2F)c1` [Compound J193, (Z)-1-(3-(5-(Dimethylamino)-2-(2,2,2-trifluoroethoxy)phenyl)-4-oxothiazolidin-2-ylidene)-3-(2-fluoro-4-(1-(4-(trifluoromethoxy)phenyl)-1H-1,2,4-triazol-3-yl)phenyl)urea], the pest or weed control at 50 µg/cm2 in test [1] and in test [3] was 50 to 100% each time. Also, the pest or weed control at 200 µg/mL in test [2] fell in the range of 0 to 80%.
Regarding `Cc1ccc(COCC(F)(F)F)c(N2C(=O)CS/C2=N\C(=O)Nc2ccc(-c3ncn(-c4ccc(OC(F)(F)F)cc4)n3)cc2Cl)c1` [Compound J194, (Z)-1-(2-Chloro-4-(1-(4-(trifluoromethoxy)phenyl)-1H-1,2,4-triazol-3-yl)phenyl)-3-(3-(5-methyl-2-((2,2,2-trifluoroethoxy)methyl)phenyl)-4-oxothiazolidin-2-ylidene)urea], the pest or weed control at 50 µg/cm2 in test [1] and in test [3] was 50 to 100% throughout. Further, the pest or weed control at 200 µg/mL in test [2] was 0 to 80%.
As to `CCCc1ccc(N(C)C)cc1N1C(=O)CS/C1=N\C(=O)Nc1ccc(-c2ncn(-c3ccc(OC(F)(F)F)cc3)n2)cc1F` [Compound J196, (Z)-1-(3-(5-(Dimethylamino)-2-propylphenyl)-4-oxothiazolidin-2-ylidene)-3-(2-fluoro-4-(1-(4-(trifluoromethoxy)phenyl)-1H-1,2,4-triazol-3-yl)phenyl)urea], the pest or weed control at 50 µg/cm2 in test [1] and in test [3] was 50 to 100% each time. The pest or weed control at 200 µg/mL in test [2] was 0 to 80%.
As for `Cc1ccc(OCC(F)(F)F)c(N2C(=O)CS/C2=N\C(=O)Nc2ccc(-c3ncn(-c4ccc(SC(F)(F)F)cc4)n3)cc2F)c1` [Compound J223, (Z)-1-(2-Fluoro-4-(1-(4-((trifluoromethyl)thio)phenyl)-1H-1,2,4-triazol-3-yl)phenyl)-3-(3-(5-methyl-2-(2,2,2-trifluoroethoxy)phenyl)-4-oxothiazolidin-2-ylidene)urea], the pest or weed control at 50 µg/cm2 in test [1] and in test [3] was 50 to 100% throughout. Further, the pest or weed control at 200 µg/mL in test [2] was in the range of 0 to 80%.
Turning to `CCOc1ccc(C)cc1N1C(=O)CS/C1=N\C(=O)Nc1ccc(-c2ncn(-c3ccc(SC(F)(F)F)cc3)n2)cc1F` [Compound J224, (Z)-1-(3-(2-Ethoxy-5-methylphenyl)-4-oxothiazolidin-2-ylidene)-3-(2-fluoro-4-(1-(4-((trifluoromethyl)thio)phenyl)-1H-1,2,4-triazol-3-yl)phenyl)urea], the pest or weed control at 50 µg/cm2 in test [1] and in test [3] was 50 to 100% each time. Besides, the pest or weed control at 200 µg/mL in test [2] lay in the range of 0 to 80%.
